Results reported in US20180064125A1, “INHIBITION OF PATHOGENIC GROWTH ON PLANT MATERIALS USING LACTIC ACID PRODUCING MICROORGANISMS” (priority 2009, published 2018).

Test system: E. coli O157:H7
Experiment: 12 day shelf-life study of inoculated spinach rinsed with LAB, chlorine or multi-hurdle intervention at 7° C.
Set-up: species or system Escherichia coli O157:H7
Settings: 12 day shelf-life at 7° C., in words, P<0.0001

## OCl [chlorine, sodium hypochlorite]
  Reductions in pathogen populations compared to control populations: Significant reductions
